# Like-named read-outs stand apart in the source and are kept apart here.
# Key:
# Rv3406 [1] = biological target: T1, Rv3406 (Mycobacterium tuberculosis, UniProt P9WKZ1); conditions: substrate; ref Neres et al., ACS Chem Biol 10, 705-714 (2015); cited from earlier work
# Mtb [2] = format: cell-based, Mycobacterium tuberculosis
# Rv3406 [3] = biological target: T1, Rv3406
# Mtb in mouse macrophages = assay: Intracellular Mtb in mouse bone marrow-derived macrophages; conditions: treated 24 hours after infection
# Mtb [4] = assay: MIC measurements (carbon sources, biotin in medium)
# Mtb H37Rv strain = assay: Combination of Bio-AMS with rifampicin, ethambutol, isoniazid in liquid culture; format: cell-based, Mycobacterium tuberculosis; conditions: for bactericidal activity when used individually: Bio-AMS at 1 µM, rifampicin at 6.5 nM, ethambutol at 12.5 µM; for change of MIC by sublethal dose of Bio-AMS: Bio-AMS 1 µM, 3 days pre-exposure; for Mtb inoculum killed: after 20 days of treatment
# [5] = Tolerability at ascending intraperitoneal doses; format: in vivo, CD-1 mice
# Method: Groups of three mice received Bio-AMS (50, 100, 250, or 500 mg/kg) via intraperitoneal injection at 4 ml/kg. They were observed continuously for the first half-hour after injection and then at 24 hours after injection.
# Table S5. Tolerability of Bio-AMS at ascending intraperitoneal doses in CD-1 mice.a Bio-AMS 50mg/kg (IP) 4 ml/kg
# Mouse # Weight ½ h Observation 24h Observation
# Bio-AMS 100mg/kg (IP) 4 ml/kg
# Bio-AMS 250mg/kg (IP) 4 ml/kg
# Bio-AMS 500mg/kg (IP) 4 ml/kg […]
# would be tolerated in mice (with plasma concentrations above the MIC for a minimum of 40-50% of the dosing interval). For this, we conducted a dose escalation tolerab ility study in which groups of three mice received ascending IP doses of Bio-AMS. Only the lowest dose of 50 mg/kg was tolerated up to 24 h post injection. Animal weights remained unchanged during the 24 h period post-injection at all doses. Assuming linear pharmacokinetics, a 50 mg/kg dose would deliver plasma concentrations above the MIC for a very small fraction of the dosing
# Mtb [6] = assay: Acid-fast (Kinyoun) staining after Bio-AMS exposure; format: cell-based, Mycobacterium tuberculosis; conditions: lethal dose (5 µM); after 10 days of exposure
# [7] = test system: non-replicating Mtb H37Rv strain; assay: Viability of non-replicating Mtb (PBS starvation); format: cell-based, Mycobacterium tuberculosis; conditions: starvation in PBS
# [8] = in vivo
# in vivo [9] = conditions: CD-1, mouse
# [10] = Rifampicin-doxycycline interaction study; conditions: plasma; for AUC(0-t): female, CD-1, mouse, in vivo, po, Doxycycline AUC[0-8] Mean (SD); for Doxycycline Cmin Mean (SD): daytime
# in vivo [11] = conditions: female, NZW, rabbit, lung lesions and plasma, oral
# [12] = 7 days
# Mtb ∆bioA = format: cell-based, Mycobacterium tuberculosis
# bioA TetON-1 Mtb strain = test system: bioA TetON-1 Mtb strain; parameters: species or system C57BL/6 mice; conditions: in vivo
# in vivo [13] = conditions: female, CD-1, mouse, po, 10 mg/kg
# [14] = test system: [H][C@]12CS[C@@H](CCCCC(=O)NS(=O)(=O)NC[C@H]3O[C@@H](n4cnc5c(N)ncnc54)[C@H](O)[C@@H]3O)[C@@]1([H])NC(=O)N2; assay: purified protein, by the assay type; conditions: pH 7.5; 25.0 °C
# [15] = different carbon sources at 0.1%
# [16] = rifampicin single dose plus doxycycline in diet (2000 ppm, 7 days)
# [17] = rifampicin steady state + doxycycline in diet
compound,measurement,setting,value
"CCCCC(CC)COS(=O)(=O)[O-].[Na+] (centres unmarked) [2-EHS, 2-ethylhexyl sulfate]",Km,Rv3406 [1],8.8 ± 0.5 µM
same,kcat,Rv3406 [1],0.32 ± 0.015 s⁻¹
"Nc1ncnc2c1ncn2[C@@H]1O[C@H](CNS(=O)(=O)NC(=O)CCCC[C@@H]2SC[C@@H]3NC(=O)N[C@@H]32)[C@@H](O)[C@H]1O [Bio-AMS, 5′-[N-(d-biotinoyl)sulfamoyl]amino-5′-deoxyadenosine]",mitochondrial toxicity,HepG2 cells,no signs of mitochondrial toxicity
same,"shift in IC50, glucose medium compared to galactose medium",HepG2 cells; human,1.05 fold
same,bactericidal concentration,Mtb [2],5 µM
same,killing kinetics,Mtb [2],kinetics similar to that of isoniazid
same,viability of the culture,Mtb [2],< 25 CFU/ml
same,KM value relative to 2-EHS (higher),Rv3406 [3],48 fold
same,kcat value relative to 2-EHS (lower),Rv3406 [3],~1300 fold
same,growth of Mtb H37Ra (CFU),Mtb H37Ra,prevented growth
same,toxicity for mouse macrophages,mouse macrophages,did not detect toxicity
same,growth of Mtb in infected mouse macrophages,Mtb in mouse macrophages,inhibited growth of Mtb in a concentration-dependent manner
same,impact of primary carbon source on MIC,Mtb [4]; [15],little impact
same,impact of primary carbon source on minimal bactericidal concentration,Mtb [4]; [15],little impact
same,increase of MIC by addition of biotin to the growth medium,Mtb [4]; with versus without biotin,fourfold
same,bactericidal activity when used individually,Mtb H37Rv strain,none of the compounds were bactericidal
same,24h Observation,"[5]; 50 mg/kg IP, mouse 1",Normal activity
same,½ h Observation,"[5]; 50 mg/kg IP, mouse 1","Active, grooming"
same,24h Observation,"[5]; 50 mg/kg IP, mouse 2",Scruffy; some lethargic
same,½ h Observation,"[5]; 50 mg/kg IP, mouse 2","Active, grooming"
same,24h Observation,"[5]; 50 mg/kg IP, mouse 3",Normal activity
same,½ h Observation,"[5]; 50 mg/kg IP, mouse 3","Active, grooming"
same,24h Observation,"[5]; 100 mg/kg IP, mouse 4",Normal activity; grooming
same,½ h Observation,"[5]; 100 mg/kg IP, mouse 4",Normal activity
same,24h Observation,"[5]; 100 mg/kg IP, mouse 5",Dead
same,½ h Observation,"[5]; 100 mg/kg IP, mouse 5",Normal activity
same,24h Observation,"[5]; 100 mg/kg IP, mouse 6",Euthanized
same,½ h Observation,"[5]; 100 mg/kg IP, mouse 6",Normal activity
same,24h Observation,"[5]; 250 mg/kg IP, mouse 7",Dead
same,½ h Observation,"[5]; 250 mg/kg IP, mouse 7",Heavy breathing
same,24h Observation,"[5]; 250 mg/kg IP, mouse 8",Dead
same,½ h Observation,"[5]; 250 mg/kg IP, mouse 8","Scruffy, heavy breathing"
same,24h Observation,"[5]; 250 mg/kg IP, mouse 9",Euthanized
same,½ h Observation,"[5]; 250 mg/kg IP, mouse 9",Normal activity
same,24h Observation,"[5]; 500 mg/kg IP, mouse 10",Near death; scruffy; pale color
same,½ h Observation,"[5]; 500 mg/kg IP, mouse 10","Scruffy, heavy breathing"
same,24h Observation,"[5]; 500 mg/kg IP, mouse 11",Euthanized
same,½ h Observation,"[5]; 500 mg/kg IP, mouse 11","Scruffy, heavy breathing"
same,24h Observation,"[5]; 500 mg/kg IP, mouse 12",Euthanized
same,½ h Observation,"[5]; 500 mg/kg IP, mouse 12","Scruffy, heavy breathing"
same,animal weights during the 24 h period post-injection,"[5]; IP, all doses",unchanged
same,dose tolerated up to 24 h post injection,"[5]; IP, doses of 50, 100, 250, 500 mg/kg tested",50 mg/kg
same,tolerability of the dose required for concentrations above the MIC for a substantial fraction of the dosing interval,[5]; mice,not tolerated
same,acid-fastness,Mtb [6],most bacteria no longer stained as acid-fast
same,"Mtb viability, non-replicating",[7],no reduction in Mtb viability
same,"F, bioavailability relative to IV exposure","[8]; CD-1, mouse, 25 mg/kg",241%
same,elimination in mice,[8]; mouse,rapidly eliminated
same,exposure,"[8]; mouse, ip",good exposure
same,exposure,"[8]; mouse, po",low
same,bioavailability,in vivo [9]; 25 mg/kg,2%
same,AUC(0-t),"in vivo [9]; ip, 25 mg/kg",31.8 µM·h
same,Cmax,"in vivo [9]; ip, 25 mg/kg",61.1 µM
same,AUC(0-t),"in vivo [9]; iv, 5 mg/kg",2.5 µM·h
same,Cmax,"in vivo [9]; iv, 5 mg/kg",8.72 µM
same,AUC(0-t),"in vivo [9]; po, 25 mg/kg",0.26 µM·h
same,Cmax,"in vivo [9]; po, 25 mg/kg",0.11 µM
C[C@H]1c2cccc(O)c2C(=O)C2=C(O)[C@]3(O)C(=O)C(C(N)=O)=C(O)[C@@H](N(C)C)[C@@H]3[C@@H](O)[C@@H]21 [doxycycline],decrease in exposure,"[10]; caused by seven daily doses of rifampicin, 8-hour period, P < 0.05",~ 30%
same,AUC(0-t),[10]; [16],4780 ng·h/mL
same,AUC(0-t),[10]; [17],3360 ng·h/mL
same,Doxycycline Cmin Mean (SD),[10]; [16],0.36 (0.09) g/mL
same,Doxycycline Cmin Mean (SD),[10]; [17],0.26 (0.02) g/mL
same,Kp at 7 days,in vivo [11]; 200 ppm,6.1
same,Kp at 7 days,in vivo [11]; 400 ppm,3.7
same,Average lesion/plasma ratio (SD),"[12]; animal 1069, 200 ppm in chow, 44 lesions",3.9 (2.6)
same,Average lesion/plasma ratio (SD),"[12]; animal 1071, 400 ppm in chow, 19 lesions",5.4 (2.5)
CC[C@@H](CO)NCCN[C@@H](CC)CO [ethambutol],change of MIC by sublethal dose of Bio-AMS,Mtb H37Rv strain,reduced the MIC
same,bactericidal activity when used individually,Mtb H37Rv strain,none of the compounds were bactericidal
same,Mtb inoculum killed,Mtb H37Rv strain; ethambutol 12.5 µM combined with Bio-AMS 1 µM,> 99.9%
same,change of MIC with decreasing concentrations of biotin,Mtb ∆bioA,unchanged
NNC(=O)c1ccncc1 [isoniazid],change of MIC by sublethal dose of Bio-AMS,Mtb H37Rv strain,unchanged
CO[C@H]1/C=C/O[C@@]2(C)Oc3c(C)c(O)c4c(O)c(c(/C=N/N5CCN(C)CC5)c(O)c4c3C2=O)NC(=O)/C(C)=C\C=C\[C@H](C)[C@H](O)[C@@H](C)[C@@H](O)[C@@H](C)[C@H](OC(C)=O)[C@@H]1C [rifampicin],effect of co-administration of doxycycline on exposure,[10],not affected
same,Rifampicin Cmax Mean (SD),[10]; [17],5.49 (2.14) g/mL
same,killing of Mtb bioA TetON-1 in mouse lungs,bioA TetON-1 Mtb strain,more than 200 fold
same,"CFU from lungs, BioA expression reduced (no doxycycline) compared to constitutive",bioA TetON-1 Mtb strain; mouse,fewer CFU
same,change of MIC by sublethal dose of Bio-AMS,Mtb H37Rv strain,reduced the MIC
same,bactericidal activity when used individually,Mtb H37Rv strain,none of the compounds were bactericidal
same,Mtb inoculum killed,Mtb H37Rv strain; rifampicin 6.5 nM combined with Bio-AMS 1 µM,more than 99.7%
same,AUC(0-t),in vivo [13]; Rifampicin AUC[0-8] Mean (SD),30700 ng·h/mL
same,Cmax,in vivo [13]; Rifampicin Cmax Mean (SD),5210 ng/mL
same,amount accumulated in Mtb ∆bioA compared to wild-type,Mtb ∆bioA,increased amounts of rifampicin
same,change of MIC with decreasing concentrations of biotin,Mtb ∆bioA,decreased the MIC
"O=C(O)CCC(=O)C(=O)O [α-KG, alpha-ketoglutarate]",Km,Rv3406 [1],9.4 ± 1.2 µM
same,kcat,Rv3406 [1],0.363 ± 0.0167 s⁻¹
Rv3406 (Mycobacterium tuberculosis H37Rv),Km,[14],424 ± 136 µM
same,kcat,[14],0.00025 ± 1.7e-05 s⁻¹
same,kcat/Km,[14],0.583 ± 0.12 M⁻¹ s⁻¹
